Measurements as given in patent US20240150377A1, “MODULATORS OF CYSTIC FIBROSIS TRANSMEMBRANE CONDUCTANCE REGULATOR” (VERTEX PHARMACEUTICALS INCORPORATED, priority 2020, published 2024).
pEC50: −log10 of the molar value. Where two headings read alike, the source gives them in different places. One block for each compound: values may come before it.

Molecular target: T1, CFTR (Homo sapiens, UniProt P13569, DEL508-508)
T1 construct: endogenous in cells; host or cells: primary human bronchial epithelial cells from CF subjects (F508del/MF-HBE), differentiated at air-liquid interface
Experiment: HBE assay: Ussing chamber assay of CFTR-mediated short-circuit currents
Type: cell-based
Conditions: for pEC50: read-out: HBE EC50
Experimental: 1. Ussing Chamber Assay of CFTR-Mediated Short-Circuit Currents
(§1) Ussing chamber experiments were performed using human bronchial epithelial (HBE) cells derived from CF subjects heterozygous for F508del and a minimal function CFTR mutation (F508del/MF-HBE) and cultured as previously described (Neuberger T, Burton B, Clark H, Van Goor F Methods Mol Biol 2011:741:39-54). After four days the apical media was removed, and the cells were grown at an air liquid interface for >14 days prior to use.
(§2) To isolate the CFTR-mediated short-circuit (ISC) current, F508del/MF-HBE grown on Costar® Snapwell™ cell culture inserts were mounted in an Ussing chamber and the transepithelial ISC was measured under voltage-clamp recording conditions (Vhold=0 mV) at 37° C. The basolateral solution contained (in mM) 145 NaCl, 0.83 K2HPO4, 3.3 KH2PO4, 1.2 MgCl2, 1.2 CaCl2), 10 Glucose, 10 HEPES (pH adjusted to 7.4 with NaOH) and the apical solution contained (in mM) 145 NaGluconate, 1.2 MgCl2, 1.2 CaCl2), 10 glucose, 10 HEPES (pH adjusted to 7.4 with NaOH) and 30 μM amiloride to block the epithelial sodium channel. Forskolin (20 μM) was added to the apical surface to activate CFTR, followed by apical addition of a CFTR inhibitor cocktail consisting of BPO, GlyH-101, and CFTR inhibitor 172 (each at 20 μM final assay concentration) to specifically isolate CFTR currents. The CFTR-mediated ISC (μA/cm^2) for each condition was determined from the peak forskolin response to the steady-state current following inhibition.
2. Identification of Corrector Compounds
The activity of the CFTR corrector compounds on the CFTR-mediated ISC was determined in Ussing chamber studies as described above. The F508del/MF-HBE cell cultures were either incubated with the corrector compounds at a range of concentrations in combination with 1 μM Ivacaftor or were incubated with the corrector compounds at a single fixed concentration of 10 μM in combination with 1 μM Ivacaftor for 18-24 hours at 37° C. and in the presence of 20% human serum. The concentration of corrector compounds with 1 μM Ivacaftor during the 18-24 hours incubations was kept constant throughout the Ussing chamber measurement of the CFTR-mediated ISC to ensure compounds were present throughout the entire experiment.
Ussing Chamber Assay of CFTR-mediated short-circuit currents
as §1, with “(HIBE)” for “(HBE)”, “(F508del/MIF-HIBE)” for “(F508del/MF-HBE)”
as §2, with “KH2PO4,” for “K2HPO4,”
Identification of Corrector Compounds

[1] = Table 11, read-out: HBE Max Activity (%)
[2] = Table 13, read-out: HBE Max Activity (%)
[3] = Table 10, read-out: HBE Max activity (%)
[4] = Table 11, at 10 μM, read-out: HBE Activity at 10 μM (%)
[5] = HBE assay, read-out: HBE Max activity (%)
[6] = Table 12, read-out: HBE Max Activity (%)
[7] = Table 13, at 10 μM, read-out: HBE Activity at 10 μM (%)

T1 sequence (P13569 with tags, fused parts or gaps DEL508-508): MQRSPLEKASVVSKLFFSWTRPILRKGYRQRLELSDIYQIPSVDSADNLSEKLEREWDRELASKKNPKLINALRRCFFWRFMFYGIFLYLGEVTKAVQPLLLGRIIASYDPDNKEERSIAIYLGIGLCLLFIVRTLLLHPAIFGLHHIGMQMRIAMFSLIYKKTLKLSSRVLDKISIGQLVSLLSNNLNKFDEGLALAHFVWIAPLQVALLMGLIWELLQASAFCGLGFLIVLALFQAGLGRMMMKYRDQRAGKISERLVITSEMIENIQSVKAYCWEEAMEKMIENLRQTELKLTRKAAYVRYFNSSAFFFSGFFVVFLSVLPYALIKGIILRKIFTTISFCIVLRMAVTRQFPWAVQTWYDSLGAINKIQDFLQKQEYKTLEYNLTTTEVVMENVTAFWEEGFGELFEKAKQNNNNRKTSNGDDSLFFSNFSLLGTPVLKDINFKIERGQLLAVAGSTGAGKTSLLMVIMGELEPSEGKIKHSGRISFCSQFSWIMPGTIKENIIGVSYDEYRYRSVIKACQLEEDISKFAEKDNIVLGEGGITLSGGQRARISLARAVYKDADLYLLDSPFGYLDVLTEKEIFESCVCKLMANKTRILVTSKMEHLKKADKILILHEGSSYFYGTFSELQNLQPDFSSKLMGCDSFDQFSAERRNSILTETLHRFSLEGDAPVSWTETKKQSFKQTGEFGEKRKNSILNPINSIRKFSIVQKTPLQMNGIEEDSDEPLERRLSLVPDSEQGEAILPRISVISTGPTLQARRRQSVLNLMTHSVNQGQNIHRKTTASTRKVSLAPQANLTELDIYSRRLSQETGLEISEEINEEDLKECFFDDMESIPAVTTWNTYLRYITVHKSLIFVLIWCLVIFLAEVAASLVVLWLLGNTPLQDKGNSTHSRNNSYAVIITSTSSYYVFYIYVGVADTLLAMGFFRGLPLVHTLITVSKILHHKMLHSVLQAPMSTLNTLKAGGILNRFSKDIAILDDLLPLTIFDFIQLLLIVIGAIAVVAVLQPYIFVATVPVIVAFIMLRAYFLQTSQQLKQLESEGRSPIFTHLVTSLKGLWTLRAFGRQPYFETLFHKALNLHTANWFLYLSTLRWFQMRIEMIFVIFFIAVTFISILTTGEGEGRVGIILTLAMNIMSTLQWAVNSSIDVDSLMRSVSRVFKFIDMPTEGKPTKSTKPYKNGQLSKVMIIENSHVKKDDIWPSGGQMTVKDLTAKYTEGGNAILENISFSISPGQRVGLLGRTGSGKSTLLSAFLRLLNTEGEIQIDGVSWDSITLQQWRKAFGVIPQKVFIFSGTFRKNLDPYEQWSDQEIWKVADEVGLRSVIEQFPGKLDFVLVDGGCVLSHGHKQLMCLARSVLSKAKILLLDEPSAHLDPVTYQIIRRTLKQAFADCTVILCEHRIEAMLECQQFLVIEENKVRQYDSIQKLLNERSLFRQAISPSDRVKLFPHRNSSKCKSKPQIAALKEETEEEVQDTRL

Structure (SMILES): Cc1cccc(C)c1-c1cc2nc(n1)NS(=O)(=O)c1cccc(c1)C(=O)N(CC1CCCOC1)[C@H](CC(C)(C)C)CO2 (some centres unmarked) [Compound 818]
pEC50 (Table 11): > 6.00
Emax [1]: > 60%

Structure (SMILES): Cc1cccc(C)c1-c1cc2nc(n1)NS(=O)(=O)c1cccc(c1)C(=O)N(CCc1ccc(C3CCCCC3)cn1)[C@H](CC(C)(C)C)CO2 [Compound 112, (11R)-12-[2-(5-Cyclohexyl-2-pyridyl)ethyl]-6-(2,6-dimethylphenyl)-11-(2,2-dimethylpropyl)-2,2-dioxo-9-oxa-2λ^6-thia-3,5,12,19-tetrazatricyclo[12.3.1.14,8]nonadeca-1(18),4(19),5,7,14,16-hexaen-13-one]
pEC50 (Table 11): > 6.00
Emax [1]: > 60%

Structure (SMILES): Cc1cccc(C)c1-c1cc2nc(n1)NS(=O)(=O)c1cccc(c1)C(=O)N(Cc1ccccc1-c1cn[nH]c1)[C@H](CC(C)(C)C)CO2 [Compound 147, (11R)-6-(2,6-dimethylphenyl)-11-(2,2-dimethylpropyl)-12-{[2-(1H-pyrazol-4-yl)phenyl]methyl}-9-oxa-2λ^6-thia-3,5,12,19-tetraazatricyclo[12.3.1.14,8]nonadeca-1(17),4,6,8(19),14(18),15-hexaene-2,2,13-trione]
pEC50 (Table 10): > 6.00
Emax [3]: > 60%

Structure (SMILES): Cc1cccc(C)c1-c1cc2nc(n1)NS(=O)(=O)c1cccc(c1)C(=O)N(CCc1cccc(N3CCOCC3)n1)[C@H](CC(C)(C)C)CO2 [Compound 110, (11R)-6-(2,6-Dimethylphenyl)-11-(2,2-dimethylpropyl)-12-[2-(6-morpholino-2-pyridyl)ethyl]-2,2-dioxo-9-oxa-2λ^6-thia-3,5,12,19-tetrazatricyclo[12.3.1.14,8]nonadeca-1(18),4(19),5,7,14,16-hexaen-13-one]
activation at 10 µM [4]: > 60%
pEC50 (Table 11): > 6.00
Emax [1]: > 60%

Structure (SMILES): Cc1cccc(C)c1-c1cc2nc(n1)NS(=O)(=O)c1cccc(c1)C(=O)N(Cc1nc(N(C)CC(C)(C)C)ccc1F)[C@H](CC(C)(C)C)CO2 [Compound 371]
pEC50 (Table 13): > 6.00
Emax [2]: > 60%

Structure (SMILES): Cc1cccc(C)c1-c1cc2nc(n1)NS(=O)(=O)c1cccc(c1)C(=O)N(Cc1cncc(C3CCCCC3)c1)[C@H](CC(C)(C)C)CO2 [Compound 286]
pEC50 (Table 12): > 6.00
Emax [6]: > 60%

Structure (SMILES): Cc1cccc(C)c1-c1cc2nc(n1)NS(=O)(=O)c1cccc(c1)C(=O)N(Cc1ccc(C(C)(C)C)cn1)[C@H](CC(C)(C)C)CO2 [Compound 496]
pEC50 (Table 10): > 6.00
Emax [3]: > 60%

Structure (SMILES): Cc1cccc(C)c1-c1cc2nc(n1)NS(=O)(=O)c1cccc(c1)C(=O)N(Cc1cccc(CCC(C)(C)C)n1)[C@H](CC(C)(C)C)CO2 [Compound 582]
pEC50 (Table 12): > 6.00
Emax [6]: > 60%

Structure (SMILES): Cc1cccc(C)c1-c1cc2nc(n1)NS(=O)(=O)c1cccc(c1)C(=O)N(CC(=O)N1[C@H](C)CCC[C@@H]1C)[C@H](CC(C)(C)C)CO2 [Compound 190]
activation at 10 µM [7]: > 600%

Structure (SMILES): Cc1cccc(C)c1-c1cc2nc(n1)NS(=O)(=O)c1cccc(c1)C(=O)N(Cc1ncccc1N1CCCCC1)[C@H](CC(C)(C)C)CO2 [Compound 377]
pEC50 (Table 10): > 6.00
Emax [3]: > 60%

Structure (SMILES): Cc1cccc(C)c1-c1cc2nc(n1)NS(=O)(=O)c1cccc(c1)C(=O)N(Cc1ncc(N3[C@H](C)CC[C@@H]3C)cn1)[C@H](CC(C)(C)C)CO2 [Compound 535]
activation at 10 µM [7]: > 600%
pEC50 (Table 13): > 6.00
Emax [2]: > 60%

Structure (SMILES): Cc1cccc(C)c1-c1cc2nc(n1)NS(=O)(=O)c1cccc(c1)C(=O)N(Cc1nccc(N(C)C3CC4(CCC4)C3)n1)[C@H](CC(C)(C)C)CO2 [Compound 445]
pEC50 (Table 12): > 6.00
Emax [6]: > 60%

Structure (SMILES): Cc1cccc(C)c1-c1cc2nc(n1)NS(=O)(=O)c1cccc(c1)C(=O)N(CC1CC(C)(C)CCO1)[C@H](CC(C)(C)C)CO2 (single isomer, unassigned) [Compound 25]
activation at 10 µM [4]: > 60%

Structure (SMILES): Cc1cccc(C)c1-c1cc2nc(n1)NS(=O)(=O)c1cccc(c1)C(=O)N(Cc1ncc(C3CC(C)(C)C3)cn1)[C@H](CC(C)(C)C)CO2 [Compound 158]
pEC50 (Table 13): > 6.00
Emax [2]: > 60%

Structure (SMILES): COCCN1CCC(CN2C(=O)c3cccc(c3)S(=O)(=O)Nc3nc(cc(-c4c(C)cccc4C)n3)OC[C@H]2CC(C)(C)C)C1=O (some centres unmarked) [Compound 640]
pEC50 (Table 11): > 6.00

Structure (SMILES): Cc1cccc(C)c1-c1cc2nc(n1)NS(=O)(=O)c1cccc(c1)C(=O)N(Cc1cccc(N3CCC34CCOC4)n1)[C@H](CC(C)(C)C)CO2 (some centres unmarked) [Compound 532]
pEC50 (Table 13): > 6.00
Emax [2]: > 60%

Structure (SMILES): Cc1cccc(C)c1-c1cc2nc(n1)NS(=O)(=O)c1cccc(c1)C(=O)N(Cc1cccc(N(C)C)n1)[C@H](CC(C)(C)C)CO2 [Compound 491]
activation at 10 µM (Table 10, at 10 μM, read-out: HBE activity at 10 (μM) (%)): > 60%
pEC50 (Table 10): > 6.00
Emax [3]: > 60%

Structure (SMILES): Cc1cccc(C)c1-c1cc2nc(n1)NS(=O)(=O)c1cccc(c1)C(=O)N(Cc1cncc(N(C)CC3C4(CC4)C34CC4)n1)[C@H](CC(C)(C)C)CO2 [Compound 442]
pEC50 (Table 12): > 6.00
Emax [6]: > 60%

Next, values leading:

pEC50 (Table 13): > 6.00
Emax [2]: > 60%
Structure (SMILES): COC1(C)CCN(c2ccc(CN3C(=O)c4cccc(c4)S(=O)(=O)Nc4nc(cc(-c5c(C)cccc5C)n4)OC[C@H]3CC(C)(C)C)nc2)CC1 [Compound 1059]

activation at 10 µM (HBE assay, 10 μM, read-out: HBE Activity at 10 μM (%)): > 60%
Structure (SMILES): CCCOc1cnc(CN2C(=O)c3cccc(c3)S(=O)(=O)Nc3nc(cc(-c4c(C)cccc4C)n3)OC[C@H]2CC(C)(C)C)nc1 [Compound 1521]

pEC50 (HBE assay): 5.52 to 6.00
Emax [5]: > 60%
Structure (SMILES): Cc1cccc(C)c1-c1cc2nc(n1)NS(=O)(=O)c1cccc(c1)C(=O)N(Cc1ncc(OC(C)C)cc1F)[C@H](CC1CC1)CO2 [Compound 1467]

pEC50 (HBE assay): > 6.00
Emax [5]: > 60%
Structure (SMILES): COCCN(c1cncc(CN2C(=O)c3cccc(c3)S(=O)(=O)Nc3nc(cc(-c4c(C)cccc4C)n3)OC[C@H]2CC(C)(C)C)n1)C(C)C [Compound 1407]

pEC50 (Table 13): > 6.00
Emax [2]: > 60%
Structure (SMILES): COc1cnc(CN2C(=O)c3cccc(c3)S(=O)(=O)Nc3nc(cc(-c4c(C)cccc4C)n3)OC[C@H]2CC(C)(C)C)c(F)c1 [Compound 1112]

pEC50 (Table 13): > 6.00
Emax [2]: > 60%
Structure (SMILES): Cc1cccc(C)c1-c1cc2nc(n1)NS(=O)(=O)c1cccc(n1)C(=O)N(Cc1cccc(NCC(C)(C)C)n1)[C@H](CC(C)(C)C)CO2 [Compound 1144]

activation at 10 µM [7]: > 600%
Structure (SMILES): Cc1cccc(C)c1-c1cc2nc(n1)NS(=O)(=O)c1cccc(c1)C(=O)N(CC1(NC(=O)OC(C)(C)C)CC3(CCC3)C1)[C@H](CC(C)(C)C)CO2 [Compound 999]

activation at 10 µM [7]: > 600%
Structure (SMILES): Cc1cccc(C)c1-c1cc2nc(n1)NS(=O)(=O)c1cccc(c1)C(=O)N(Cc1cccc(Br)n1)[C@H](CC(C)(C)C)CO2 [Compound 992]

pEC50 (Table 11): > 6.00
Emax [1]: > 60%
Structure (SMILES): Cc1cccc(C)c1-c1cc2nc(n1)NS(=O)(=O)c1cccc(c1)C(=O)N(Cc1cc(N3CCCCC3)ccn1)[C@H](CC(C)(C)C)CO2 [Compound 888]

pEC50 (Table 12): > 6.00
Emax [6]: > 60%
Structure (SMILES): Cc1cccc(C(C)C)c1-c1cc2nc(n1)NS(=O)(=O)c1cccc(c1)C(=O)N(Cc1cnc(C3CCOCC3)cn1)[C@H](CC(C)(C)C)CO2 [Compound 1064]
